These results are taken from patent US7422846B2, “Natural ligand for orphan G protein coupled receptor GPR86 and methods of use” (Euroscreen S.A, priority 2001, dated 2008).

The target of the assay is T1, GPR86 (P2Y13) human receptor (Homo sapiens, UniProt Q9BPV8, T179M).
T1 sequence (Q9BPV8 22-354 T179M): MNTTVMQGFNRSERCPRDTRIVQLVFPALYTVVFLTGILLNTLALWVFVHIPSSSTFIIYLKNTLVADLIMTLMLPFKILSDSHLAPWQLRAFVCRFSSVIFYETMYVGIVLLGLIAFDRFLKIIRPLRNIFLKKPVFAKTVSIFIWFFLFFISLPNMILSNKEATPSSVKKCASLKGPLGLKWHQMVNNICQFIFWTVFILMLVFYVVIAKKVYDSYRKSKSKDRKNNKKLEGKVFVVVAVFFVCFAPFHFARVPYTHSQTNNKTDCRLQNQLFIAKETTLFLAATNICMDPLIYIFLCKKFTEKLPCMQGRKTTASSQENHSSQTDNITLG
The experiment in a line: IP3 accumulation in 1321N1 cells (AG32) expressing GPR86 (P2Y13) together with Gα16. Also on record: expressed in transfected cells; host or cells: 1321N1 astrocytoma clone AG32 (stably expressing Gα16 from pERAEQ2), G418-selected. Particulars: for EC50: 1321N1 cells expressing GPR86 and Gα16, 30 s, mean±S.D. of three independent experiments, read-out: EC50, IP3 accumulation. In kind it is cell-based. As to the method: Cells of the invention, for example, 1321N1 cells, are labelled for 24 hours with 10 μCi/ml [^3H] inositol in inositol free DMEM containing 5% FCS, antibiotics, amphotericin, sodium pyruvate and 400 μg/ml G418. Cells are incubated for 2 h in Krebs-Ringer Hepes (KRH) buffer of the following composition (124 mM NaCl, 5 mM KCl, 1.25 mM MgSO4, 1.45 mM CaCl2, 1.25 mM KH2PO4, 25 mM Hepes (pH: 7.4) and 8 mM glucose). The cells are then challenged with various nucleotides for 30 s. The incubation is stopped by the addition of an ice cold 3% perchloric acid solution. IP are extracted and separated on Dowex columns as previously described (25). 2MeSATP and ATP solutions (1 mM) are treated at room temperature with 20 units/ml CPK and 10 Mm cp for 90 min to circumvent problems arising from the contamination and degradation of triphosphate nucleotide solutions.
CHO-K1 and 1321N1 cells were transfected with the recombinant GPR86-pEFIN5 plasmid or with the plasmid alone using the FuGENE™6 transfection reagent (Roche Molecular Biochemicals). A clone called AG32 corresponding to 1321N1 cells previously transfected with pERAEQ2 plasmid encoding Gα16 (provided by Euroscreen), was transfected. The CHO-K1 and 1321N1 transfected cells were selected with 400 μg/ml G418 in complete medium (10% FBS, 100 units/ml penicillin, 100 μg/ml streptomycin and 2.5 μg/ml amphotericin B in respectively Ham's F12 or DMEM (Dulbecco's modified Eagle's) medium) two days after transfection and maintained in the same medium. The AG32 cells were maintained in the same DMEM complete medium supplemented with 500 μg/ml zeocin.
The pool of G418-resistant clones was tested for its functional IP3 response to several nucleotides, according to the method described above. The cells were challenged by various nucleotides at a concentration of 100 μM for 30 s: ATP, ADP, UTP, UDP, ITP, IDP, TDP.
Concentration-action curves for ADP, 2MeSADP and ADPβS. […] 1321N1 transfected cells were incubated in the presence of various concentrations of ADP, 2MeSADP and ADPβS for 30 s. The data represent the mean±S.D. of triplicate experimental points obtained in one representative experiment of three.
AG32 cells were seeded (200,000 cells per dish) on 35 mm (diameter) Petri dishes and labeled for 24 h with 5 μCi/ml [3H]-myoinositol in inositol free DMEM containing 5% fetal calf serum, antibiotics, amphotericin, sodium pyruvate, and 400 μg/ml of G418. Cells were incubated for 2 h in Krebs-Ringer Hepes (KRH) buffer (124 mM NaCl, 5 mM KCl, 1.25 mM MgSO4, 1.45 mM CaCl2, 1.25 mM KH2PO4, 25 mM Hepes (pH 7.4) and 8 mM D-glucose). The cells were then incubated in presence of ADP, ATP or 2MeSATP for 30 s. The incubation was stopped by the addition of 1 ml of an ice-cold 3% perchloric acid solution. Prior to the stimulation, ATP and 2MeSATP (1 mM solutions) were incubated for 90 min at room temperature with 20 units/ml creatine phosphokinase (CPK) and 10 mM creatine phosphate (CP). The reaction was stopped by addition of 10 mM iodoacetamide.
AG32 cells were seeded (200,000 cells per dish) on 35 mm (diameter) Petri dishes and labeled for 24 h with 5 μCi/ml [^3H]-myoinositol in inositol free DMEM containing 5% fetal calf serum, antibiotics, amphotericin, sodium pyruvate, and 400 μg/ml of G418. Cells were incubated for 2 h in Krebs-Ringer Hepes (KRH) buffer (124 mM NaCl, 5 mM KCl, 1.25 mM MgSO4, 1.45 mM CaCl2, 1.25 mM KH2PO4, 25 mM Hepes (pH 7.4) and 8 mM D-glucose). The cells were then incubated in presence of two different concentrations (100 nM and 10 μM) of ADP or ApnA (n=3-6) for 30 s. The incubation was stopped by the addition of 1 ml of an ice-cold 3% perchloric acid solution.
AG32 cells were seeded (200,000 cells per dish) on 35 mm (diameter) Petri dishes and labeled for 24 h with 5 μCi/ml [^3H]-myoinositol in inositol free DMEM containing 5% fetal calf serum, antibiotics, amphotericin, sodium pyruvate, and 400 μg/ml of G418.

One may read the EC50 as the concentration that produces a half-maximal response.

For `CSc1nc(N)c2ncn([C@@H]3O[C@H](COP(=O)(O)OP(=O)(O)O)[C@@H](O)[C@H]3O)c2n1` [2MeSADP, 2-methylthio-ADP], the EC50 is 14.2 ± 3 nM.
As for `Nc1ncnc2c1ncn2[C@@H]1O[C@H](COP(=O)(O)OP(=O)(O)O)[C@@H](O)[C@H]1O` [ADP], the EC50 came out at 11.4 ± 2.2 nM. In addition, the “IP3 response to nucleotides” value (100 μM for 30 s, pool of G418-resistant clones expressing GPR86 and Gα16) is listed as “induced an IP3 response”.
